This is an account of results in ChEMBL document CHEMBL5729321, “Compound exhibiting enteropeptidase inhibitory activity” (2022).

Structures are written as SMILES.

In this assay the target is Enteropeptidase (Homo sapiens, UniProt P98073). Kind of assay: Enteropeptidase Inhibition Assay: The inhibitory activity of the enteropeptidase inhibitor synthesized using the purified Recombinant Human Enteropeptidase and the substrate Acetyl-Asp-Asp-Asp-Asp-Lys-AFC (BioVision) was measured. 7.2 ng/mL of Enteropeptidase diluted with a buffer (20 mM Tris, 50 mM NaCl, pH 7.5) in a 96 well plate (Costar), 30 μM of Acetyl-Asp-Asp-Asp-Asp-Lys-AFC, several concentrations of Enteropeptidase inhibitors (1% DMSO concentration) were dispensed such that a final volume was 100 μL, and then the enzyme reaction was carried out at 30° C. for 1 hour. At this time, 1% DMSO, a substrate and Enteropeptidase instead of the compound were dispensed onto positive control wells, and 1% DMSO and a substrate were dispensed onto negative control wells. The enzyme reaction was started using an excitation wavelength of 380 nm and an emission wavelength of 500 nm in a fluorescence spectrometer, and then the rate of increase in fluorescence (milli-units per min) between 20 and 60 minutes was measured.
Chain of Enteropeptidase (P98073 2-784 limits assumed): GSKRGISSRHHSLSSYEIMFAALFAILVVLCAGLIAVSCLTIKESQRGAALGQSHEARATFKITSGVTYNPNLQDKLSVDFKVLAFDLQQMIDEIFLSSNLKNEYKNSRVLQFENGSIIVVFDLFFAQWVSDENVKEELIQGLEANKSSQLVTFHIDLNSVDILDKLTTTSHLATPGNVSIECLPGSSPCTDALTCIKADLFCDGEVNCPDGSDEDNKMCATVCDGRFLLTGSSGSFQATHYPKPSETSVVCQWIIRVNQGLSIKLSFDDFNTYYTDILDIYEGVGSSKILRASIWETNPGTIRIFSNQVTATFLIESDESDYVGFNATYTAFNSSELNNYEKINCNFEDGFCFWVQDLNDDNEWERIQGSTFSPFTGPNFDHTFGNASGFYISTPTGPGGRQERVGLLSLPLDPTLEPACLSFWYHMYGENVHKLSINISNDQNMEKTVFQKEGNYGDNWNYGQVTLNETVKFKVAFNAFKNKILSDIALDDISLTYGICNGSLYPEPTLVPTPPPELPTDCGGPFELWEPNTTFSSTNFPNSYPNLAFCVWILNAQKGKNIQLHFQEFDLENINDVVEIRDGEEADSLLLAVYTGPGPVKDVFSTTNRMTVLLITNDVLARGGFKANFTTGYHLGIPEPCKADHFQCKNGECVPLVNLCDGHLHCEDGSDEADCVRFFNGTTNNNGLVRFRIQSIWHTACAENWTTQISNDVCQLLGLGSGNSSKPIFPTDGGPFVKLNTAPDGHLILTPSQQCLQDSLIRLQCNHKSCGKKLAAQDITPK
Chain of Enteropeptidase (P98073 785-1019 limits assumed): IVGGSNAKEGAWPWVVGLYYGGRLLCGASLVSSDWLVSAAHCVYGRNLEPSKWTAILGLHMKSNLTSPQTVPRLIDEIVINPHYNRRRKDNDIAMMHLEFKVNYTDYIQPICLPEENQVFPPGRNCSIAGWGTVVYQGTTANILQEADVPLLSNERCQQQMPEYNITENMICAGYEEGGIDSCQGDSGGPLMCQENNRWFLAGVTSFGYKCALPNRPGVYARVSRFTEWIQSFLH

On to `CCN(CCC(=O)O)c1ncc(C(=O)Oc2ccc(C(=N)N)cc2F)s1`, for which the Ki – broadly, the dissociation constant of the complex between target and ligand, obtained from inhibition or displacement – amounted to 0.68 nM. To `N=C(N)c1ccc(OC(=O)c2cnc(N3CCC(C(=O)N[C@@H](CC(=O)OCc4ccccc4)C(=O)OCc4ccccc4)CC3)s2)c(F)c1` belongs 8.2 nM.
